From patent US6552008B1, “Thrombopoietin mimetics” (SmithKline Beecham Corporation, priority 1999, dated 2003)

Molecular target: T1, TPO receptor (Homo sapiens, UniProt P40238)
T1 construct: expressed in transfected cells; host or cells: murine BaF3 cells (TPO-responsive line)
T1 sequence (P40238 26-635): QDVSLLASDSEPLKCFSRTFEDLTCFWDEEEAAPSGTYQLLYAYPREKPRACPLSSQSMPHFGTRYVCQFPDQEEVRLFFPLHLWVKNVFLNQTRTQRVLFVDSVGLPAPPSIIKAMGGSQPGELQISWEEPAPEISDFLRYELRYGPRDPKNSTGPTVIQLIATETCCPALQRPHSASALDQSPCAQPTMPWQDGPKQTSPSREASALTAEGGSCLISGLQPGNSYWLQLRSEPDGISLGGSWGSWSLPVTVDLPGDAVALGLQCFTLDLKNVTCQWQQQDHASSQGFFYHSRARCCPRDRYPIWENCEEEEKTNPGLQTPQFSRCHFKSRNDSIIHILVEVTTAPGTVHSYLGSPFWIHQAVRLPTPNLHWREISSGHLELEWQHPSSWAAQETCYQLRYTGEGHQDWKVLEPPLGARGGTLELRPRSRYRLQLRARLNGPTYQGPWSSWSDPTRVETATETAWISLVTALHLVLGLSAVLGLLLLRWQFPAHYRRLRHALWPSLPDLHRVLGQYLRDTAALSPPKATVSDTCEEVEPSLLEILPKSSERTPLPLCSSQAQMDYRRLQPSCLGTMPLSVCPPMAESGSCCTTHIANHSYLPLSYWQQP
Experiment: Luciferase assay in TPO-responsive BaF3 cell line
Assay type: cell-based, murine
Description: Compounds of the present invention were tested for potency as mimetics of the TPO receptor in a Luciferase assay such as described in Lamb, et al., Nucleic Acids Research 23: 3283-3289 (1995) and Seidel, et al., Proc. Natl. Acad. Sci., USA 92: 3041-3045 (1995) by substituting a TPO-responsive BaF3 cell line (Vigon et al. Proc. Natl. Acad. Sci. USA 1992, 89, 5640-5644) for the HepG2 cells utilized therein. The murine BaF3 cells express TPO receptors and closely match the pattern of STAT (signal transducers and activators of transcription) activation observed in primary murine and human bone marrow cells.

- EC50 (TPO-responsive BaF3 cells): 0.72 µM
- activity, % TPO (relative to TPO): 56 % TPO
SMILES: CC1=NN(c2ccc(C(=O)O)cc2)C(=O)C1N=NC1C(=O)N(c2ccc(C)c(C)c2)N=C1C (centres unmarked) [Example 1, 4-[1-(3,4-Dimethylphenyl)-3-methyl-4-(3-methyl-5-oxo-2-pyrazolin-4-ylazo)-5-oxo-2-pyrazolin-1-yl]benzoic Acid]
